The data set in a line: Saturation solubility. Type of data set: physicochemical. The procedure:
For 48 h, a known excess of the samples (etoricoxib solid dispersions, physical mixtures, and pure etoricoxib) containing 10 mg of etoricoxib was mixed with 10 mL of phosphate buffer (pH = 6.8) and 0.1 N HCL (pH = 1.2) and placed in a constant-temperature rotating water bath (Gyromax—Frederick, MD, USA) set to 50 rpm (37 ± 0.5 °C). The samples were then filtered, diluted, and analyzed at 233 nm using a UV-VIS spectrophotometer (Shimadzu). The concentration of etoricoxib was then estimated. The experiment was carried out three times.

Each structure is given as a SMILES string. ≈ marks a conversion by molar mass, not a printed value. Read-outs that look alike come from different tables or passages of the source.

Consider `Cc1ccc(-c2ncc(Cl)cc2-c2ccc(S(C)(=O)=O)cc2)cn1` [Pure Etoricoxib, 5-chloro-6’-methyl-3-[4-(methylsulfonyl)phenyl]-2,3-bipyridine], for which the solubility at 48 h by setting is: (0.1 N HCl, pH 1.2, pure drug, 0.1 N HCL pH 1.2, 37 °C, read-out: Saturation solubility of pure etoricoxib in 0.1 N HCL pH(1.2)) 73.8 µg/mL (≈ 206 µM); (phosphate buffer, pH 6.8, pure drug, phosphate buffer pH 6.8, 37 °C, read-out: Saturation solubility of pure etoricoxib in Phosphate buffer pH(6.8)) 71.1 µg/mL (≈ 198 µM). Moreover, under “pure drug, phosphate buffer pH 6.8, 37 °C, 48 h”, the “Saturation solubility of pure etoricoxib in Phosphate buffer pH(6.8)” value is listed as 71.12 μg/mL ± 1.23.

The values above are taken from paper PMC10525456, “A Comparative Study on Cyclodextrin Derivatives in Improving Oral Bioavailability of Etoricoxib as a Model Drug: Formulation and Evaluation of Solid Dispersion-Based Fast-Dissolving Tablets” (Biomedicines, 2023).
